Patent publication US6262230A, “Analogs of thymosin α1” (SciClone Pharmaceuticals Inc., priority 1994, dated 2001)
Several values for one entry are separate records, joined by “and”; a condition that tells them apart may be missing. Equal entries are not always repeated.

System: endotoxic mice (lipopolysaccharide endotoxin from E. coli at 60 mg/kg)
Assay: Survival of endotoxic mice following lethal endotoxin dose
Type: in vivo, Swiss-Webster mice
Settings: endotoxin 60 mg/kg, 3 injections of 100 μg peptide at 5 minutes, 2 and 4 hours post endotoxin, alive at 0 hr: 10 (Tα1-N16-NH2 groups), 8 ([Glp]-Tα1, Tα1-Gly-NH2); for Number of Mice Alive Following Lethal Endotoxin Dose, 24 hr: endotoxin alone 4 of 10; for Number of Mice Alive Following Lethal Endotoxin Dose, 48 hr / Number of Mice Alive Following Lethal Endotoxin Dose, 72 hr / Number of Mice Alive Following Lethal Endotoxin Dose, 4 days / Number of Mice Alive Following Lethal Endotoxin Dose, 5 days: endotoxin alone 3 of 10
Description: Swiss-Webster mice were treated in five groups: endotoxic mice (mice injected with lipopolysaccharide endotoxin from E. coli at 60 mg/kg) which were otherwise untreated, and endotoxic mice treated with 3 injections of 100 μg Thymosin α1 -N16 Amide (Tα1 -N16 -NH2) treated in two groups, Pyroglutamyl-desacetyl Thymosin α1 ([glp]-Tα1), or Thymosin α1 -Gly Amide (Tα1 -gly-NH2) at 5 minutes, 2 and 4 hours post administration of the endotoxin.

Substance	Number of Mice Alive Following Lethal Endotoxin Dose, 24 hr	Number of Mice Alive Following Lethal Endotoxin Dose, 48 hr	Number of Mice Alive Following Lethal Endotoxin Dose, 72 hr	Number of Mice Alive Following Lethal Endotoxin Dose, 4 days	Number of Mice Alive Following Lethal Endotoxin Dose, 5 days
Ac-Ser-Asp-Ala-Ala-Val-Asp-Thr-Ser-Ser-Glu-Ile-Thr-Thr-Lys-Asp-Leu-NH2 (Ac-SDAAVDTSSEITTKDL-NH2) [Tα1 -N16 --NH2]	5 and 8	4 and 8	4 and 7	4 and 7	4 and 7
Ac-Ser-Asp-Ala-Ala-Val-Asp-Thr-Ser-Ser-Glu-Ile-Thr-Thr-Lys-Asp-Leu-Lys-Glu- Lys-Lys-Glu-Val-Val-Glu-Glu-Ala-Glu-Asn-Gly-NH2 (Ac-SDAAVDTSSEITTKDLKEKKEVVEEAENG-NH2) [Tα1 -Gly-NH2]	8	8	8	8	8
